The record followed here is ChEMBL document CHEMBL1255537, “Design, synthesis and docking studies on phenoxy-3-piperazin-1-yl-propan-2-ol derivatives as protein tyrosine phosphatase 1B inhibitors” (2010).

SMILES strings stand for the structures.

Usually inhibition stands for how much of the control response was suppressed. As a reminder, the inhibition in vivo is the drop in the measured response relative to a control, in per cent.

Assay [1] deals with T1, Tyrosine-protein phosphatase non-receptor type 1 (Homo sapiens) (UniProt P18031).
T1 sequence (whole entry): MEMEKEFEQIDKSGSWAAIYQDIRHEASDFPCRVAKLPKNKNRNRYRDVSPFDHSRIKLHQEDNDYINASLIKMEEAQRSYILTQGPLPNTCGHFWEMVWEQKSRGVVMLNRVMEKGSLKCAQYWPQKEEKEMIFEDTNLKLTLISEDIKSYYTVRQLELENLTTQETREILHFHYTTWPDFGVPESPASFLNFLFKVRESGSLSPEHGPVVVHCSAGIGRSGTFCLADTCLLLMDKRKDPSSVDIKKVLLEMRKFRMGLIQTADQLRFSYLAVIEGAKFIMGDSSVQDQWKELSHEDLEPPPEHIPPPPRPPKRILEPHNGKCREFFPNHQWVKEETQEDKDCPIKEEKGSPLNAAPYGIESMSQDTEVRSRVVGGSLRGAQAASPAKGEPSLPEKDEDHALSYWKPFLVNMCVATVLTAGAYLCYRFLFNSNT
The assay can be described thus: Inhibition of PTP1B assessed as p-nitrophenolate ions release at 100 uM.

The subject of assay [2] is Rattus norvegicus. The assay can be described thus: Antihyperglycemic activity in rat sucrose loaded model assessed as reduction of blood glucose level at 100 mg/kg, po. It is filed as functional.
Assay [3] deals with Rattus norvegicus. Kind of assay: Antihyperglycemic activity in rat streptozotocin-induced diabetic model assessed as reduction of blood glucose level at 100 mg/kg, po after 5 hrs. It is filed as functional.
Assay [4] has as its system Rattus norvegicus. The assay can be described thus: Antihyperglycemic activity in rat streptozotocin-induced diabetic model assessed as reduction of blood glucose level at 100 mg/kg, po after 24 hrs. It is filed as functional.

Take `O=[N+]([O-])c1ccc(N2CCN(CC(O)COc3ccc(Cl)cc3)CC2)cc1` (stereo unspecified): the inhibition in assay [1] stood at 35.9%. For the same molecule, the results for the inhibition in vivo at 100 mg/kg with Rattus norvegicus [2], in the assay with Rattus norvegicus [3] and in the assay with Rattus norvegicus [4] were 24.8%, 18.9% and 13.6%, respectively.
For the molecule `N#Cc1ccc(OCC(O)CN2CCN(Cc3ccccc3)CC2)cc1` (stereo unspecified), the inhibition in assay [1] is 5.1%. Besides, the results for the inhibition in vivo at 100 mg/kg in the assay on Rattus norvegicus [2], in the assay with Rattus norvegicus [3] and with Rattus norvegicus [4] were 39.6%, 25.3% and 14.7%, respectively.
For the molecule `CN(C)C(=N)NC(=N)N` [METFORMIN], the inhibition in vivo at 100 mg/kg amounted to 42% in the assay on Rattus norvegicus [2], 28% with Rattus norvegicus [3] and 29.8% in the assay on Rattus norvegicus [4].
Turning to `COc1ccccc1N1CCN(CC(O)COc2ccc(C#N)cc2)CC1` (stereo unspecified), the inhibition in assay [1] amounted to 2.6%. Also, the inhibition in vivo at 100 mg/kg in the assay on Rattus norvegicus [2] is 33.5%.
For `N#Cc1ccc(OCC(O)CN2CCN(c3ccccc3)CC2)cc1` (stereo unspecified) the same measures were 4.6% and 56.7%.
For `OC(COc1ccc(Cl)cc1)CN1CCN(C/C=C/c2ccccc2)CC1` (stereo unspecified) the same measures were 7.63% and 14.6%.
Take `N#Cc1ccc(OCC(O)CN2CCN(c3ccc(F)cc3)CC2)cc1` (stereo unspecified): the inhibition in assay [1] was determined as 3.6%. Further, in the assay with Rattus norvegicus [2], the inhibition in vivo at 100 mg/kg was determined as 38.6%.
On to `N#Cc1ccc(OCC(O)CN2CCN(Cc3ccc4c(c3)OCO4)CC2)cc1` (stereo unspecified), for which the inhibition in assay [1] was 0.5%. In the assay on Rattus norvegicus [2], the inhibition in vivo at 100 mg/kg was found to be 14%.
As for `OC(COc1ccc(Cl)cc1)CN1CCN(c2ccc(Cl)c(Cl)c2)CC1` (stereo unspecified), in assay [1], the inhibition amounted to 24.6%. In addition, in the assay on Rattus norvegicus [2], the inhibition in vivo at 100 mg/kg amounted to 3.52%.
In the case of `O=[N+]([O-])c1ccc(N2CCN(CC(O)COc3ccc(F)cc3)CC2)cc1` (stereo unspecified), the inhibition in assay [1] is 24%. The inhibition in vivo at 100 mg/kg with Rattus norvegicus [2] turned out to be 40.2%; in the assay with Rattus norvegicus [3], 14.4%; in the assay on Rattus norvegicus [4], 10.8%.
Turning to `COc1ccc(N2CCN(CC(O)COc3ccc(Cl)cc3)CC2)cc1` (stereo unspecified), in assay [1], the inhibition stood at 9.21%. Further, the inhibition in vivo at 100 mg/kg in the assay with Rattus norvegicus [2] worked out at 4.6%.
On to `N#Cc1ccc(OCC(O)CN2CCN(c3cccc(Cl)c3)CC2)cc1` (stereo unspecified), for which the inhibition in assay [1] came out at 1.5%. Further, in the assay with Rattus norvegicus [2], the inhibition in vivo at 100 mg/kg stood at 16.5%.
Turning to `Cc1ccc(N2CCN(CC(O)COc3ccc(C#N)cc3)CC2C)cc1` (stereo unspecified), in assay [1], the inhibition was 31.6%. For the same molecule, the inhibition in vivo at 100 mg/kg came out at 40.3% in the assay on Rattus norvegicus [2], 26.8% in the assay on Rattus norvegicus [3] and 32% with Rattus norvegicus [4].
As to `N#Cc1ccc(OCC(O)CN2CCN(c3ccccn3)CC2)cc1` (stereo unspecified), the inhibition in assay [1] came out at 1.8%. Further, the inhibition in vivo at 100 mg/kg with Rattus norvegicus [2] turned out to be 39.6%.
The like results for `CN1CCN(CC(O)COc2ccc(Cl)cc2)CC1` (stereo unspecified) were, in that order, 2.4% and 2.61%.
The like results for `N#Cc1ccc(OCC(O)CN2CCN(c3cccc(C(F)(F)F)c3)CC2)cc1` (stereo unspecified) were, in that order, 18.8% and 49.7%.
